Columns and labels:
[1] = target: Vascular endothelial growth factor receptor 2 (Homo sapiens) (UniProt P35968); assay: Inhibition of human VEGFR2 at 1 uM using poly[Glu:Tyr] (4:1) as substrate in presence of [gamma-33P]ATP relative to control
[2] = target: Vascular endothelial growth factor receptor 3 (Homo sapiens) (UniProt P35916); assay: Inhibition of human VEGFR3 at 1 uM using poly[Glu:Tyr] (4:1) as substrate in presence of [gamma-33P]ATP relative to control
[3] = AUC in Sprague-Dawley rat at 20 mg/kg, po using crystalline sample during 7 day dose ranging study by LC/MS/MS analysis; assay type: ADME, organism-based; conditions: in vivo
[4] = Dose normalized AUC in Sprague-Dawley rat at 20 mg/kg, po using crystalline sample during 7 day dose ranging study by LC/MS/MS analysis; assay type: ADME, organism-based; conditions: in vivo, 168 h
[5] = target: T1, Toll-like receptor 9 (Homo sapiens, UniProt Q9NR96); assay: Inhibition of TLR9 in human monocytes assessed as reduction in CpG-ODN-induced IL8 production; assay type: cell-based
T1 sequence (Q9NR96 whole entry): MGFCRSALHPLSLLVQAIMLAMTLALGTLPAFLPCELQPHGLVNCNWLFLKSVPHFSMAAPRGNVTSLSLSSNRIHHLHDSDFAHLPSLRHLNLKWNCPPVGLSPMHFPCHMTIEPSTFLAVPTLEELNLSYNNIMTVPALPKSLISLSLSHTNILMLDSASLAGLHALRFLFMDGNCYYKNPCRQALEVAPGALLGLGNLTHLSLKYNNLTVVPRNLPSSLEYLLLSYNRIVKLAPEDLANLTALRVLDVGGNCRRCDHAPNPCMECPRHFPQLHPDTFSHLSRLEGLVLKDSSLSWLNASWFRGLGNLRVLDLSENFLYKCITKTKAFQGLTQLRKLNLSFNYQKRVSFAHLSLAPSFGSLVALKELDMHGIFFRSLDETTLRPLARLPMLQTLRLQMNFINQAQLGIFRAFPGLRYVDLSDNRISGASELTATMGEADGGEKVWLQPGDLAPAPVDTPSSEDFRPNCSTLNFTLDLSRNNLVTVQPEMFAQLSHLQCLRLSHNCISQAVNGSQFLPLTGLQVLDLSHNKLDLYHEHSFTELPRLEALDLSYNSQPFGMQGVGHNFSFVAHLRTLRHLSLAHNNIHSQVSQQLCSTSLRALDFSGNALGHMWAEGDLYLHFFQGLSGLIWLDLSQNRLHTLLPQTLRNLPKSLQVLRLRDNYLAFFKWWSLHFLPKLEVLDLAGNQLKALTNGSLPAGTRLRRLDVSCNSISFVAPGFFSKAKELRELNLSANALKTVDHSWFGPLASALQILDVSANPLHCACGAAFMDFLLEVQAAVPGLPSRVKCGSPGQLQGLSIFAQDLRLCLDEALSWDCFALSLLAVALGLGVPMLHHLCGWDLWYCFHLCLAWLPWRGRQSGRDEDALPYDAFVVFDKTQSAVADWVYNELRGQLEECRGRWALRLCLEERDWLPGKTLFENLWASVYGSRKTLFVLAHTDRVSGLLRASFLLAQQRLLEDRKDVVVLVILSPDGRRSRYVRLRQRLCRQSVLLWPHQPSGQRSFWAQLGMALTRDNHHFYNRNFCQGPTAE

[6] = Unbound fraction in rat blood; assay type: ADME, tissue-based
[7] = Unbound fraction in human blood; assay type: ADME, tissue-based
[8] = Clearance in rat hepatocytes; assay type: ADME, cell-based, Hepatocyte
[9] = Cmax in Sprague-Dawley rat assessed as 2-((4-(Benzo[d]thiazol-5-ylamino)-6-(tert-butylsulfonyl)quinazolin-7-yl)oxy)ethanol level at 2 mg/kg, po by LC/MS/MS analysis; assay type: ADME, organism-based; set-up: dose 2 mg/kg, route oral; conditions: in vivo
[10] = AUC in Beagle dog assessed as 2-((4-(Benzo[d]thiazol-5-ylamino)-6-(tert-butylsulfonyl)quinazolin-7-yl)oxy)ethanol level at 2 mg/kg, po by LC/MS/MS analysis; assay type: ADME, organism-based, Canis lupus familiaris; conditions: in vivo
[11] = Volume of distribution at steady state in Beagle dog assessed as 2-((4-(Benzo[d]thiazol-5-ylamino)-6-(tert-butylsulfonyl)quinazolin-7-yl)oxy)ethanol level at 2 mg/kg, po or 0.9 mg/kg, iv by LC/MS/MS analysis; assay type: ADME, organism-based, Canis lupus familiaris; conditions: in vivo
[12] = Cmax in Gottingen minipig assessed as 2-((4-(Benzo[d]thiazol-5-ylamino)-6-(tert-butylsulfonyl)quinazolin-7-yl)oxy)ethanol level at 1 mg/kg, po by LC/MS/MS analysis; assay type: ADME, organism-based, Sus scrofa; set-up: dose 1 mg/kg, route oral; conditions: pig, in vivo
[13] = AUC in Gottingen minipig assessed as 2-((4-(Benzo[d]thiazol-5-ylamino)-6-(tert-butylsulfonyl)quinazolin-7-yl)oxy)ethanol level at 1 mg/kg, po by LC/MS/MS analysis; assay type: ADME, organism-based, Sus scrofa; conditions: pig, in vivo
[14] = Volume of distribution at steady state in Gottingen minipig assessed as 2-((4-(Benzo[d]thiazol-5-ylamino)-6-(tert-butylsulfonyl)quinazolin-7-yl)oxy)ethanol level at 2 mg/kg, po or 1 mg/kg, iv by LC/MS/MS analysis; assay type: ADME, organism-based, Sus scrofa; conditions: pig, in vivo
[15] = Prodrug conversion in Han Wistar rat colon assessed as 2-((4-(Benzo[d]thiazol-5-ylamino)-6-(tert-butylsulfonyl)quinazolin-7-yl)oxy)ethanol formation at 2 mg/kg, iv administered as infusion for 4 hrs; assay type: ADME, organism-based; conditions: in vivo
[16] = Drug uptake in Han Wistar rat brain at 2 mg/kg, iv administered as infusion for 4 hrs; assay type: ADME, organism-based; conditions: in vivo
[17] = Prodrug conversion in rat hepatocytes assessed as (2S,3S,4S,5R,6R)-6-(2-(4-(benzo[d]thiazol-5-ylamino)-6-(tert-butylsulfonyl)quinazolin-7-yloxy)ethoxy)-3,4,5-trihydroxytetrahydro-2H-pyran-2-carboxylic acid formation at 20 uM measured after 4 hrs; assay type: ADME, cell-based, Hepatocyte
[18] = Prodrug conversion in rat hepatocytes assessed as 2-((4-(Benzo[d]thiazol-5-ylamino)-6-(tert-butylsulfonyl)quinazolin-7-yl)oxy)ethanol formation at 20 uM measured after 4 hrs; assay type: ADME, cell-based, Hepatocyte
[19] = Prodrug conversion in rat hepatocytes assessed as 2-(4-(benzo[d]thiazol-5-ylamino)-6-(tert-butylsulfonyl)-1,2,3,4-tetrahydroquinazolin-7-yloxy)ethanol formation at 20 uM measured after 4 hrs; assay type: ADME, cell-based, Hepatocyte
[20] = Prodrug conversion in human hepatocytes assessed as 2-(4-(benzo[d]thiazol-5-ylamino)-6-(tert-butylsulfonyl)-1,2,3,4-tetrahydroquinazolin-7-yloxy)ethanol formation at 20 uM measured after 4 hrs; assay type: ADME, cell-based, Hepatocyte
[21] = Prodrug conversion in human hepatocytes assessed as (2S,3S,4S,5R,6R)-6-(2-(4-(benzo[d]thiazol-5-ylamino)-6-(tert-butylsulfonyl)quinazolin-7-yloxy)ethoxy)-3,4,5-trihydroxytetrahydro-2H-pyran-2-carboxylic acid formation at 20 uM measured after 4 hrs; assay type: ADME, cell-based, Hepatocyte
[22] = Prodrug conversion in Sprague-Dawley rat intestine assessed as 2-((4-(Benzo[d]thiazol-5-ylamino)-6-(tert-butylsulfonyl)quinazolin-7-yl)oxy)ethanol formation at 2 mg/kg, po or 0.5 mg/kg, iv measured at 15 to 120 mins post dose; assay type: ADME, organism-based; conditions: in vivo
[23] = Toxicity in Sprague-Dawley rat during 6 week study; conditions: in vivo, 1008 h
[24] = Toxicity in Gottingen minipig during 6 week study; set-up: species or system Sus scrofa; conditions: pig, in vivo, 1008 h

Sequence of Vascular endothelial growth factor receptor 3 (Homo sapiens) (P35916 whole entry): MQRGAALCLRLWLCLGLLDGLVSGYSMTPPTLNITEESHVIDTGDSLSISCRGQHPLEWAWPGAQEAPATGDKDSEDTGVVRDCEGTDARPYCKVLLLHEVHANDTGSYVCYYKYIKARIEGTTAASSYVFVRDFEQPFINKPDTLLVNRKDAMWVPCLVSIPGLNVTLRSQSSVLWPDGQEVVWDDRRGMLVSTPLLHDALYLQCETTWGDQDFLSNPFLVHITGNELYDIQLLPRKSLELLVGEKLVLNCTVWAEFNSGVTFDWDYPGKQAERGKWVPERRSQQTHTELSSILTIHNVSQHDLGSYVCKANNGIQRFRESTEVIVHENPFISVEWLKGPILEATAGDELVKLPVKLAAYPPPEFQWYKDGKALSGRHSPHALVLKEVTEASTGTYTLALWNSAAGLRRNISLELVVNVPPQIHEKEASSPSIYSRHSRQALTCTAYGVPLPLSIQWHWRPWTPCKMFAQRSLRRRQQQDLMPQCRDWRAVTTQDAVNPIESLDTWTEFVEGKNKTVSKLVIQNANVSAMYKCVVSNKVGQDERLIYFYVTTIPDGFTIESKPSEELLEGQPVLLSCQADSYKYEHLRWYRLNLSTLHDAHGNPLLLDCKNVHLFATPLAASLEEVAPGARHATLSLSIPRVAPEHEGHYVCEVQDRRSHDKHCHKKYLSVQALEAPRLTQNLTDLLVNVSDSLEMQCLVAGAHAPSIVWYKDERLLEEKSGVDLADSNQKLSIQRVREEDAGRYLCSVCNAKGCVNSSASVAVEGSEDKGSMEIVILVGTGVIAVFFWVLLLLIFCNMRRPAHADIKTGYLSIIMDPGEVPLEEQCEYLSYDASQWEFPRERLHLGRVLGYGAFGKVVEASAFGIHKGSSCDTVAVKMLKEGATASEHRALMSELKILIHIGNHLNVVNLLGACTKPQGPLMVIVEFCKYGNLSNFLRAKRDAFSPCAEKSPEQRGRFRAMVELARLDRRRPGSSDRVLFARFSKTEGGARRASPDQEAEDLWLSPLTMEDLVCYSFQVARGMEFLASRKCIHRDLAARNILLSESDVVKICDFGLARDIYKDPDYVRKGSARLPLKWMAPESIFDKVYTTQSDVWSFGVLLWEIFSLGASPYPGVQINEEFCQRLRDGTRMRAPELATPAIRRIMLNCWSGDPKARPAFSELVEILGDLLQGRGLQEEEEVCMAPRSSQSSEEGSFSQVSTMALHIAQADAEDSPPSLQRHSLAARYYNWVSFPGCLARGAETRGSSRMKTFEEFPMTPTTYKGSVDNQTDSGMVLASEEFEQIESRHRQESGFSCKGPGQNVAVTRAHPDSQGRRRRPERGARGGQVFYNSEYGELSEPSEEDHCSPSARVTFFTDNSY
Sequence of Vascular endothelial growth factor receptor 2 (Homo sapiens) (P35968 whole entry): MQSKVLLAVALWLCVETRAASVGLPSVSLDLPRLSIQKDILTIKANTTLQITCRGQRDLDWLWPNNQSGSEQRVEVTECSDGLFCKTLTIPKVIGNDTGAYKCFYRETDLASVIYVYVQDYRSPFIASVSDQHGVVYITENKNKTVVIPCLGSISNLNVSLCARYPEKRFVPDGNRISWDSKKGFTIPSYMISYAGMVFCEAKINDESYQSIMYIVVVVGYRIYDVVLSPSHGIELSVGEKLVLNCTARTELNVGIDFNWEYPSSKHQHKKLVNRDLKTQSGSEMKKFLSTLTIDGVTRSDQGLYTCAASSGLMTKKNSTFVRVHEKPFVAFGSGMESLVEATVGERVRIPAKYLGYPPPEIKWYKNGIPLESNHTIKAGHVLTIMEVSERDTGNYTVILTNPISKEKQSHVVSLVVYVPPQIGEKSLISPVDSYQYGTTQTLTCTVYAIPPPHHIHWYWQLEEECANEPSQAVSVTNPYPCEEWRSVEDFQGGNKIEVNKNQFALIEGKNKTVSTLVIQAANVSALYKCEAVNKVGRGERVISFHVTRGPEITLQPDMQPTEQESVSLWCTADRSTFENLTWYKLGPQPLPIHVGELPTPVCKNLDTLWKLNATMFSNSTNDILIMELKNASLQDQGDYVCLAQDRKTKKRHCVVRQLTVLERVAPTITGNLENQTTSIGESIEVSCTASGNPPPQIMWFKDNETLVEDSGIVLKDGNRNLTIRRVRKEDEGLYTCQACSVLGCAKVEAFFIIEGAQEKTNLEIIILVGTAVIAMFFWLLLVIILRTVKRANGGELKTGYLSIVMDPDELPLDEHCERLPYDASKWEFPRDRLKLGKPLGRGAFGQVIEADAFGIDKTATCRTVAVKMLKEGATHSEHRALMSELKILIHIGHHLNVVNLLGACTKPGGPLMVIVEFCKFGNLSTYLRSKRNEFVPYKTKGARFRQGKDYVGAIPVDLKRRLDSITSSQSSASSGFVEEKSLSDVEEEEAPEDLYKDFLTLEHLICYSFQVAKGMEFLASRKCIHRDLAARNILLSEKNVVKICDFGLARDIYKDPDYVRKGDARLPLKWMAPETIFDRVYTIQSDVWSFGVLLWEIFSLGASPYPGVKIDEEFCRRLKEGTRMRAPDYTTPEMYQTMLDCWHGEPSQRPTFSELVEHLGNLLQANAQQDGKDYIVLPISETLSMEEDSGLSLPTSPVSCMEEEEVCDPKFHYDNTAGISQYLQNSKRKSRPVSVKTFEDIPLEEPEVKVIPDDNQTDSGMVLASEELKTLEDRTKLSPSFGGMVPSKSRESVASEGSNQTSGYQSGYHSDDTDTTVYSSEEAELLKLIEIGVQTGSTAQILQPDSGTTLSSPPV

For CC(C)(C)S(=O)(=O)c1cc2c(Nc3ccc4scnc4c3)ncnc2cc1OCCO, the inhibition [1] was 70 to 90%, the inhibition [2] was over 90% and the AUC at 168 h [3] was 8800 ng·h/mL. For the same compound, the AUC/dose [4] was 0.44 kg·h/L, the IC50 [5] was over 10 µM and the fraction unbound [6] was 0.11. For the same compound, the fraction unbound [7] was 0.069 and the CLH [8] was under 0.48 mL/min/g.
With CC(C)(C)S(=O)(=O)c1cc2c(Nc3ccc4scnc4c3)ncnc2cc1OCCOP(=O)(O)O.[CaH2] the Cmax [9] was 170 ng/mL, the AUC [10] was 4400 ng·h/mL and the Vdss [11] was 2 L/kg. For the same compound, the Cmax [12] was 340 ng/mL, the AUC [13] was 1100 ng·h/mL and the Vdss [14] was 2.1 L/kg. For the same compound, the Drug metabolism [15] was “Metabolite_Detected”, the Drug uptake [16] was “Not Active” and the Drug metabolism [17] was “Metabolite_Detected”. The Drug metabolism [18] was “Metabolite_Detected”, the Drug metabolism [19] was “Metabolite_Detected” and the Drug metabolism [20] was “Metabolite_Detected”. For the same compound, the Drug metabolism [21] was “Metabolite_Detected”, the Drug metabolism [22] was “Metabolite_Detected” and the Activity [23] was “Non-Toxic”. The Activity [24] was “Non-Toxic”.
